Data on 15 compounds can be found in US7423114B2, “GD2 ligands” (McGill University, priority 2002, dated 2008).

For assay [1], the system named is EL4 GD2^positive cells. Briefly: Intracellular calcium by flow cytometry (Rhod-2 AM). In kind it is cell-based, mouse. Particulars: PP1 10 μM, EL4 GD2positive cells. As to the method: (c) Effect of GD2 ligands on intracellular calcium concentrations. Resting EL4 GD2positive cells were treated with mAb 3F8 (13 nM), control mouse IgG (mIg) or the calcium ionophore A23187. Intracellular calcium concentration was evaluated over time by flow cytometry using the calcium-sensitive fluorophore Rhod-2 AM. mAb 3F8 can induce strong, sustainable calcium changes withing 5 minutes, while control mouse IgG has no effect. […] Shown are averages of 4 independent assays ± SEM.
Intracellular calcium studies: cells (1×10^6 per sample) were washed with Ringer's solution (155 mM NaCl, 4.5 mM KCl, 2 mM CaCl2, 1 mM MgCl2, 10 mM D-glucose, 5 mM HEPES) and resuspended in 1 ml Ringer's containing 10 μM p56^Lck inhibitor PP1 (BioMol) or vehicle for 15 minutes at 37° C. Then 5 μM Rhod-2AM (Molecular Probes) was then added to the cells and incubated for 30 minutes at room temprature with mild agitation. Cells were washed once in Ringer's, resuspended in 1 ml Ringer's and incubated for 30 minutes, after which cells were stimulated with the indicated ganglioside ligands (or calcium ionophore A23187 as control) and analyzed over a 30 minute period for intracellular Ca^2+ using a flow cytometer (Becton-Dickinson).

The subject of assay [2] is mAb 3F8-GD2 interactions. Kind of assay: Competitive ELISA: inhibition of mAb 3F8 binding to immobilized GD2 by peptides. Details: key to Activity in SAR and deletion analysis (inactive mark): peptides marked by * are inactive. Particulars: for % Inhibition of mAb 3F8-GD2 interactions: peptides 50 μg/well, 1 hour before mAb 3F8, immobilized GD2, no peptide = 0%, no mAb 3F8 = 100%, mean ± SEM of 5 experiments; for Activity in SAR and deletion analysis (inactive mark): Table 1 domains/peptides. As to the method: Detection of GD2 or GM1 by ELISA: 12.5 ng/well of ganglioside (GD2, Advanced Immunochemicals or GM1) were immobilized by drying onto PVC 96-well plates (Falcon), followed by blocking with PBS-0.5% BSA for one hour. Then, anti-GD2 mAb 3F8 or biotin-CTB were added for 10 minutes. The plate was washed three times with PBS-0.5% BSA and incubated 60 minutes with horseradish peroxidase (HRP)-conjugated anti-mouse antibody or HRP-conjugated-avidin. After three washes with PBS-0.5% BSA and two with PBS, the colorimetric substrate ABTS was added and the plate read at 414 nm on a Biorad 550 plate reader. Assessment of peptide-GD2 interaction by competitive ELISA: ELISAs were as described above, except that peptides (50 μg/well, in PBS) were added to the wells for 1 hour before anti-GD2 mAb 3F8 or anti-GM1 cholera toxin-B. Selectivity of inhibition is controlled by lack of effect upon GM1-CTB interactions. […] No competitor peptide added or control irrelevant peptide added were standardized as 100% binding. […] Inhibition of mAb 3F8 bindng to immobilized GD2 by peptides, measured by competitive ELISA. No peptide or control peptide treatments are standardized as 0% inhibition. No mAb 3F8 treatment is standardized as 100% inhibition. Average of 5 […] experiments, n=4 in each experiment. Mean±SEM.
On the technique in general: An ELISA detects its analyte on a solid surface through an enzyme-linked reagent.

Assay [3] deals with T1, human recombinant CD45 (Homo sapiens, UniProt P08575).
T1 construct: purchased BioMol
T1 sequence (P08575 26-1306): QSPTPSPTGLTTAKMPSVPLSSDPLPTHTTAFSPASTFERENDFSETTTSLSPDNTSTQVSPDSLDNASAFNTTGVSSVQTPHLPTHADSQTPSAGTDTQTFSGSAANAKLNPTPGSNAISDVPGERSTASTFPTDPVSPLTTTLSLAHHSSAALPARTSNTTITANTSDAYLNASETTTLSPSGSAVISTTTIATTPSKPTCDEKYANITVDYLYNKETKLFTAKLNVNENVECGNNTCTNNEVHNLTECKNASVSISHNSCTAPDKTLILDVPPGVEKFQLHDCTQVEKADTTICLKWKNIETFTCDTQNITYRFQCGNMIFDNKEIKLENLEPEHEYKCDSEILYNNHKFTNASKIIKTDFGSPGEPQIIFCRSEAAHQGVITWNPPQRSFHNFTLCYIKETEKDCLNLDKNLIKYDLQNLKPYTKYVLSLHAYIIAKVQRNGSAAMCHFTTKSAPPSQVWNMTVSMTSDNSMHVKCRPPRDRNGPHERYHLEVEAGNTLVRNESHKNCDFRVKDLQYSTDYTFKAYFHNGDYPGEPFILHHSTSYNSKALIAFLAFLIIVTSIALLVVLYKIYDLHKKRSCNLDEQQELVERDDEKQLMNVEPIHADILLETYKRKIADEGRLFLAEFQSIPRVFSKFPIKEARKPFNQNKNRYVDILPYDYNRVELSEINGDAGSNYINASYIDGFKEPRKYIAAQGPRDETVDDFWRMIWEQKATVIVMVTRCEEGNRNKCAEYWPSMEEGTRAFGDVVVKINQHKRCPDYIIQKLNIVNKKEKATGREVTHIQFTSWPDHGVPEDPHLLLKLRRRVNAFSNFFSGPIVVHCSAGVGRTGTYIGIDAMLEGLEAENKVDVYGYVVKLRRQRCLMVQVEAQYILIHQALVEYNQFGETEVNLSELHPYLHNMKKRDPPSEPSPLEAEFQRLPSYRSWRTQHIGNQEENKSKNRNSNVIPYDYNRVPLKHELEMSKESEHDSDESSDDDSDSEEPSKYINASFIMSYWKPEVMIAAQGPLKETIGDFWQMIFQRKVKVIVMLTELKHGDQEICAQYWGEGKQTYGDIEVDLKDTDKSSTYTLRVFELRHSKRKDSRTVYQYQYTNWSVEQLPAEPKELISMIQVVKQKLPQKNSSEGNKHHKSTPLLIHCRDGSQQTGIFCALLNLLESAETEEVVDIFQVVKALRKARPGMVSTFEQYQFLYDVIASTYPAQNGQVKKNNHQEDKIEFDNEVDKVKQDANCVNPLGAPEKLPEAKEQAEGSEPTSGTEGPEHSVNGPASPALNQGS
Briefly: In vitro CD45 phosphatase assay. Particulars: gangliosides 16.7 μM, pp60Src phosphoregulatory peptide substrate. In kind it is biochemical. As to the method:
In vitro CD45 phosphatase assay: human recombinant CD45 enzyme (BioMol, 75 units/well) was preincubated in the absence (negative control) or presence of sodium orthovanadate (positive control) or various gangliosides (16.7 μM) for 20 minutes at room temperature in half-volume 96-well microtiter plates. A CD45-specific substrate (pp60^Src C-terminal phosphoregulatory peptide, 200 μM) was then added for 20 minutes at 30° C., afterwhich the reaction was stopped and quantified with BioMol Green reagent. Plates were read at 620 nm with a Biorad 550 platew reader.

Assay [4] addresses T2, purified p56^Lck tyrosine kinase (Homo sapiens, UniProt P06239).
T2 construct: purchased Upstate Biotechnology
Briefly: Effect of exogenous gangliosides on in vitro kinase activity of purified p56Lck. Particulars: control assays. In kind it is biochemical. As to the method: The kinase activity of p56^Lck was evaluated by measuring the incorporation of ^32PO4 in a peptidic p56^Lck substrate over time, with or without GD2 or GM1. Presence of GD2, but not GM1, can positively alter the kinetics of p56^Lck kinase activity. Activity standardized to untreated p56^Lck at the 20 minute time point. Shown are averages of 3 to 5 assays±SEM.
Effect of exogenous GD2 on p56^Lck in vitro kinase assay: chromatographically purified p56^Lck tyrosine kinase (Upstate Biotechnology) was incubated on ice for 10 minutes in kinase buffer (100 mM Tris-HCl, pH 7.2, 125 mM MgCl2, 25 mM MnCl2, 2 mM EGTA, 150 μM ATP, 0.25 mM sodium orthovanadate, 2 mM DTT) with or without ˜20 fold molar excess of ganglioside and 10 μCi [γ-^32P]ATP. Then 10 μg of the Src kinase substrate peptide p34^cdc2(6-20) (Upstate Biothechnology) was added to the mix and incubated at room temperature for the times indicated, after which the reaction was stopped by addition of 100 μM iodoacetamide and by precipitation of proteins with final 10% TCA. The supematant (containing the phosphorylated peptide substrate, not precipitated by TCA) was spotted on a P81 paper (Whatman) and washed three times with 0.75% phosphoric acid and once with acetone. The [^32P]-peptide content was quantified using a Storm 840 phosphorimager with ImageQuant software.

“Also recorded” adds a separate entry of the source.

T2 sequence (P06239 whole entry): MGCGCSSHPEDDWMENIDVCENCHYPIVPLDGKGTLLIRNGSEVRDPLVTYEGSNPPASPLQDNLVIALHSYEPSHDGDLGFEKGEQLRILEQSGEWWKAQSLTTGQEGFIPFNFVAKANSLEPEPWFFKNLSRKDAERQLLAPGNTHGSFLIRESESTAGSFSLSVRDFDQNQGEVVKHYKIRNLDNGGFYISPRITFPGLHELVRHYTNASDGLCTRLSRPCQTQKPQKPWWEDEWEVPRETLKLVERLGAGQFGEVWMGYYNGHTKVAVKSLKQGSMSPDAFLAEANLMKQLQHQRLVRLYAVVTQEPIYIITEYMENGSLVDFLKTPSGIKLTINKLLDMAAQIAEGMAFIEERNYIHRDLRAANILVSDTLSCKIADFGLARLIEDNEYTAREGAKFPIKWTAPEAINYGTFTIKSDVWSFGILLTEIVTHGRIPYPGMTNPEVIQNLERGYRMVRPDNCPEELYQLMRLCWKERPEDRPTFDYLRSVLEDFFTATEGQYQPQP

Regarding `Cc1ccc(-c2nn(C(C)(C)C)c3ncnc(N)c23)cc1` [PP1], the “Effect of p56Lck inhibitor on mAb 3F8-induction of Ca++ fluxes” value in assay [1] was “markedly decreased; also recorded: partially abolished”.

C G G I T N Y N C (CGGITNYNC) [Pep 54]: the “% Inhibition of mAb 3F8-GD2 interactions” value in assay [2] is 40.34 ± 3.17%.

On to “C G G I T N Y N S A C (CGGITNYNSAC) [Pep 52]”, for which the “% Inhibition of mAb 3F8-GD2 interactions” value in assay [2] was 30.17 ± 2.69%.

For C G GI A N Y N C [Pep 58], the “% Inhibition of mAb 3F8-GD2 interactions” value in assay [2] is 47.60 ± 4.26%.

On to C G GI A N Y N T S C [Pep 59], for which the “% Inhibition of mAb 3F8-GD2 interactions” value in assay [2] worked out at 48.83 ± 5.01%.

As to C I A N Y N T C (CIANYNTC) [Pep 60], in assay [2], the “% Inhibition of mAb 3F8-GD2 interactions” value amounted to 30.94 ± 3.53%.

For the compound C I T N Y N S C (CITNYNSC) [Pep 53], the “% Inhibition of mAb 3F8-GD2 interactions” value in assay [2] was determined as 24.74 ± 3.29%.

Turning to C T N Y G V C (CTNYGVC) [Pep 56], the “% Inhibition of mAb 3F8-GD2 interactions” value in assay [2] is given as 14.13 ± 5.43%.

Take C T N Y G V H C (CTNYGVHC) [Pep 55]: the “% Inhibition of mAb 3F8-GD2 interactions” value in assay [2] is recorded as 12.23 ± 4.41%.

With G G I A N Y N T S (GGIANYNTS) [Pep 57], in assay [2], the “Activity in SAR and deletion analysis (inactive mark)” value (“Activity in SAR and deletion analysis” for short) is “*”; the “% Inhibition of mAb 3F8-GD2 interactions” value is 4.33 ± 5.23%.

With “G G I T N Y N S A L M (GGITNYNSALM) [Pep 51]”, in assay [2], the “Inhibition of GD2-mAb 3F8 interactions in ELISA, in words” value is “can also act as a competitive inhibitor” and the “% Inhibition of mAb 3F8-GD2 interactions” value is on record as 44.96 ± 1.57%.

For the compound GD1a, the “Inhibition of CD45 phosphatase activity” value in assay [3] was determined as 50%.

Take “YCTNYGVCY [core matches Pep 56 with added terminal Y residues]”: in assay [2], the “Activity in SAR and deletion analysis” value is “*”.

Consider “YCTNYGVHCY [core matches Pep 55 with added terminal Y residues]”, for which the “Activity in SAR and deletion analysis” value in assay [2] is “*”.

As for phosphatidylcholine, the “p56Lck kinase activity upon addition of exogenous lipid, in words” value in assay [4] is reported as “not altered”.
